The target in test [1] is T1, human LTA4 hydrolase (Homo sapiens, UniProt P09960).
T1 sequence (P09960 1-611): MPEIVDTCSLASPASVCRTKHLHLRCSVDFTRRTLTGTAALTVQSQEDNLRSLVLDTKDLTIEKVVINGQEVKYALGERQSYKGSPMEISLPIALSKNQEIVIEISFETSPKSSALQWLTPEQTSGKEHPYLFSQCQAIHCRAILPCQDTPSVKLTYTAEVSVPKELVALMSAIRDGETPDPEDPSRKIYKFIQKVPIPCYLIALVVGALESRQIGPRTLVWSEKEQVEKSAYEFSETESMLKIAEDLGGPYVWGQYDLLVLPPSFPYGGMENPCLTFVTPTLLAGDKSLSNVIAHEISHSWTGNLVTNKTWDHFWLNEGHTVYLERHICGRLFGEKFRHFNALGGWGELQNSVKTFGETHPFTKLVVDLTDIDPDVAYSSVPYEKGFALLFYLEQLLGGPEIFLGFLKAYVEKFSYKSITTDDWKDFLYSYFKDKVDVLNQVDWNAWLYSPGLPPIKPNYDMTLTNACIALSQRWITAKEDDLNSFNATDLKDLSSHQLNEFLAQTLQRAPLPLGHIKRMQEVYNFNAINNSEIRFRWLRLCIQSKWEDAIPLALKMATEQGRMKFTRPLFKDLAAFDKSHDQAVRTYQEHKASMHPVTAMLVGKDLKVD
Description: LTA4H enzyme assay (cleavage of Arg-AMC, fluorescence). The test is classed as biochemical. Particulars: LTA4H enzyme 1 nM, Arg-AMC substrate 50 μM, room temperature 1 h. The method, then: Compounds are assessed for the ability to interact with human LTA4 hydrolase in an enzymatic assay that measures the ability of the enzyme to cleave the peptide bond of arginyl-aminomethylcoumarin (Arg-AMC). LTA4H Enzyme (1 nM final), Arg-AMC substrate (50 μM final), and compound are combined in a reaction buffer (50 mM Tris-HCl (pH 7.5), 100 mM KCl, 0.5% bovine serum albumin) at room temperature for 1 h. The formation of product is assessed by measuring the fluorescence of aminomethylcoumarin product (excitation wavelength 380 nm/emission wavelength 460 nm).

The subject of test [2] is LTB4 production in human whole blood. Description: LTB4 production inhibition assay in human whole blood (calcimycin-stimulated). The format is cell-based. Particulars: heparinized human whole blood, 15 min 37° C., calcimycin 20 μM 30 min, plasma LTB4 by HTRF. How it is done: Compounds of the invention are additionally tested in a human whole blood assay to determine their ability to inhibit the synthesis of LTB4 in a cellular system. Compounds are combined with heparinized human whole blood and incubated for 15 minutes at 37° C. Calcimycin (20 μM final, prepared in phosphate-buffered saline, pH 7.4) is then added and the mixture is incubated for another 30 minutes at 37° C. The samples are centrifuged for 5 min at low speed (1500×g) and the plasma layer is removed. Plasma LTB4 concentrations are then measured using an antibody-based homogenous time-resolved fluorescence method (CisBio, Bedford, Mass.).
For orientation: In TR-FRET formats the signal depends on donor and acceptor labels being close together.

A word on the IC50: it is the point on the concentration scale where inhibition reaches its midpoint. In the case of `c1ccc2[nH]c(COc3ccc(Oc4ccc(-c5ccn[nH]5)cc4)cc3)nc2c1` [Example 28, 2-({4-[4-(1H-pyrazol-5-yl)phenoxy]phenoxy}methyl)-1H-benzimidazole], the figures for the IC50 in test [1] and in test [2] were 1.4 nM and at least 5000 nM, respectively.
Regarding `c1cncc(CCOc2ccc(Oc3ccc(-c4ccn[nH]4)cc3)cc2)c1` [Example 29, 3-(2-{4-[4-(1H-pyrazol-5-yl)phenoxy]phenoxy}ethyl)pyridine], the values for the IC50 in test [1] and in test [2] were 4.9 nM and 2280 nM, respectively.
In the same order, the values of `c1coc(COc2ccc(Oc3ccc(-c4ccn[nH]4)cc3)cc2)c1` [Example 30, 5-{4-[4-(2-furylmethoxy)phenoxy]phenyl}-1H-pyrazole] are 65.6 nM and at least 5000 nM.
Take `CC(Cc1ccccc1)Oc1ccc(Oc2ccc(-c3ccn[nH]3)cc2)cc1` (centres unmarked) [Example 31, 5-{4-[4-(1-methyl-2-phenylethoxy)phenoxy]phenyl}-1H-pyrazole]: the IC50 in test [1] is 900 nM; in test [2], at least 5000 nM.
In the same order, the values of `CC(COc1ccc(Oc2ccc(-c3ccn[nH]3)cc2)cc1)c1ccccc1` (centres unmarked) [Example 32, 5-{4-[4-(2-phenylpropoxy)phenoxy]phenyl}-1H-pyrazole] are 360 nM and at least 5000 nM.
In the same order, the values of `c1ccc(CCOc2ccc(Oc3ccc(-c4ccn[nH]4)cc3)cc2)nc1` [Example 33, 2-(2-{4-[4-(1H-pyrazol-5-yl)phenoxy]phenoxy}ethyl)pyridine] are 5.2 nM and 3360 nM.
Taken in the same sequence, the figures for `c1cncc(COc2ccc(Oc3ccc(-c4ccn[nH]4)cc3)cc2)c1` [Example 34, 3-({4-[4-(1H-pyrazol-5-yl)phenoxy]phenoxy}methyl)pyridine] were 1.5 nM and 2540 nM.
Consider `c1cc(COc2ccc(Oc3ccc(-c4ccn[nH]4)cc3)cc2)ccn1` [Example 35, 4-({4-[4-(1H-pyrazol-5-yl)phenoxy]phenoxy}methyl)pyridine], for which the values for the IC50 in test [1] and in test [2] were 3.9 nM and 1780 nM, respectively.
In the same order, the values of `c1cc(-c2ccc(Oc3ccc(OCc4cn5ccsc5n4)cc3)cc2)[nH]n1` [Example 36, 6-({4-[4-(1H-pyrazol-5-yl)phenoxy]phenoxy}methyl)imidazo[2,1-b][1,3]thiazole] are 6 nM and 4500 nM.
`CS(=O)(=O)c1ccc(COc2ccc(Oc3ccc(-c4ccn[nH]4)cc3)cc2)cc1` [Example 37, 5-[4-(4-{[4-(methylsulfonyl)benzyl]oxy}phenoxy)phenyl]-1H-pyrazole]: the IC50 in test [1] stood at 3.5 nM; in test [2], 2090 nM.
Taken in the same sequence, the figures for `c1cc(-c2ccc(Oc3ccc(OCc4cscn4)cc3)cc2)[nH]n1` [Example 38, 4-{4-[4-(2H-Pyrazol-3-yl)-phenoxy]-phenoxymethyl}-thiazole] were 3.3 nM and at least 5000 nM.
In the same order, the values of `c1cc(-c2ccc(Oc3ccc(OCc4cnc5[nH]ccc5c4)cc3)cc2)[nH]n1` [Example 39, 5-({4-[4-(1H-pyrazol-5-yl)phenoxy]phenoxy}methyl)-1H-pyrrolo[2,3-b]pyridine] are 7.6 nM and at least 5000 nM.
In the same order, the values of `c1cc(CCOc2ccc(Oc3ccc(-c4ccn[nH]4)cc3)cc2)ccn1` [Example 40, 4-(2-{4-[4-(1H-pyrazol-5-yl)phenoxy]phenoxy}ethyl)pyridine] are 3.2 nM and 3120 nM.
Turning to `c1ccc2[nH]c(NCCOc3ccc(Oc4ccc(-c5ccn[nH]5)cc4)cc3)nc2c1` [Example 41, N-(2-{4-[4-(1H-pyrazol-5-yl)phenoxy]phenoxy}ethyl)-1H-benzimidazol-2-amine], the values for the half-maximal inhibitory concentration (IC50) in test [1] and in test [2] were 0.2 nM and 673 nM, respectively.
As for `Cc1nccn1CCOc1ccc(Oc2ccc(-c3ccn[nH]3)cc2)cc1` [Example 42, 5-(4-{4-[2-(2-methyl-1H-imidazol-1-yl)ethoxy]phenoxy]phenyl)-1H-pyrazole], the IC50 in test [1] came to 0.3 nM; in test [2], 172 nM.
As to `c1ccc2c(c1)ncn2CCOc1ccc(Oc2ccc(-c3ccn[nH]3)cc2)cc1` [Example 43, 1-(2-{4-[4-(1H-pyrazol-5-yl)phenoxy]phenoxy}ethyl)-1H-benzimidazole], the results for the IC50 in test [1] and in test [2] were 1.3 nM and 1910 nM, respectively.
Take `c1cnc(COc2ccc(Oc3ccc(-c4ccn[nH]4)cc3)cc2)cn1` [Example 44, 2-({4-[4-(1H-pyrazol-5-yl)phenoxy]phenoxy}methyl)pyrazine]: the IC50 in test [1] was found to be 1.1 nM; in test [2] it was 766 nM.
In the same order, the values of `c1ccc2[nH]c(CCOc3ccc(Oc4ccc(-c5ccn[nH]5)cc4)cc3)nc2c1` [Example 45, 2-(2-{4-[4-(1H-pyrazol-5-yl)phenoxy]phenoxy}ethyl)-1H-benzimidazole] are 1.7 nM and at least 5000 nM.
Taken in the same sequence, the figures for `c1cc(-c2ccc(Oc3ccc(OCc4cc[nH]n4)cc3)cc2)[nH]n1` [Example 46, 3-({4-[4-(1H-pyrazol-5-yl)phenoxy]phenoxy}methyl)-1H-pyrazole] were 6.1 nM and 4900 nM.
Taken in the same sequence, the figures for `c1cnc2c(c1)CCC2Oc1ccc(Oc2ccc(-c3ccn[nH]3)cc2)cc1` (centres unmarked) [Example 47, 7-{4-[4-(1H-pyrazol-5-yl)phenoxy]phenoxy}-6,7-dihydro-5H-cyclopenta[b]pyridine] were 82.4 nM and at least 5000 nM.
Regarding `CC(Oc1ccc(Oc2ccc(-c3ccn[nH]3)cc2)cc1)c1ccncc1` (centres unmarked) [Example 48, 4-(1-{4-[4-(1H-pyrazol-5-yl)phenoxy]phenoxy}ethyl)pyridine], the IC50 in test [1] came out at 16.9 nM; in test [2] it was 3920 nM.
In the same order, the values of `c1cc(-c2ccc(Oc3ccc(OCc4cnc5cc[nH]c5c4)cc3)cc2)[nH]n1` [Example 49, 6-({4-[4-(1H-pyrazol-5-yl)phenoxy]phenoxy}methyl)-1H-pyrrolo[3,2-b]pyridine] are 1.2 nM and 3140 nM.
Taken in the same sequence, the figures for `c1cnn(CCCOc2ccc(Oc3ccc(-c4ccn[nH]4)cc3)cc2)c1` [Example 50, 1-(3-{4-[4-(1H-pyrazol-5-yl)phenoxy]phenoxy}propyl)-1H-pyrazole] were 1.2 nM and 2110 nM.
In the same order, the values of `CC(CCOc1ccc(Oc2ccc(-c3ccn[nH]3)cc2)cc1)n1cccn1` (centres unmarked) [Example 51, 1-(1-methyl-3-{4-[4-(1H-pyrazol-5-yl)phenoxy]phenoxy}propyl)-1H-pyrazole] are 4 nM and 3110 nM.
In the case of `c1cc(-c2ccc(Oc3ccc(OCc4ccno4)cc3)cc2)[nH]n1` [Example 52, 5-({4-[4-(1H-pyrazol-5-yl)phenoxy]phenoxy}methyl)isoxazole], the IC50 in test [1] is 4.1 nM; in test [2], 2600 nM.
In the same order, the values of `c1ccn2cc(COc3ccc(Oc4ccc(-c5ccn[nH]5)cc4)cc3)nc2c1` [Example 53, 2-({4-[4-(1H-pyrazol-5-yl)phenoxy]phenoxy}methyl)imidazo[1,2-a]pyridine] are 3.7 nM and at least 5000 nM.
Taken in the same sequence, the figures for `c1cc(-c2ccc(Oc3ccc(OCc4cocn4)cc3)cc2)[nH]n1` [Example 54, 4-({4-[4-(1H-pyrazol-5-yl)phenoxy]phenoxy}methyl)-1,3-oxazole] were 4.2 nM and at least 5000 nM.
In the same order, the values of `c1cc(-c2ccc(Oc3ccc(OCCc4cn[nH]c4)cc3)cc2)[nH]n1` [Example 55, 4-(2-{4-[4-(1H-pyrazol-5-yl)phenoxy]phenoxy}ethyl)-1H-pyrazole] are 7 nM and 2500 nM.
Take `Cn1ncnc1COc1ccc(Oc2ccc(-c3ccn[nH]3)cc2)cc1` [Example 56, 1-methyl-5-({4-[4-(1H-pyrazol-5-yl)phenoxy]phenoxy}methyl)-1H-1,2,4-triazole]: the IC50 in test [1] is 0.6 nM; in test [2] it was at least 5000 nM.
`Cn1nc(COc2ccc(Oc3ccc(-c4ccn[nH]4)cc3)cc2)cc1-c1ccco1` [Example 57, 5-(2-furyl)-1-methyl-3-({4-[4-(1H-pyrazol-5-yl)phenoxy]phenoxy}methyl)-1H-pyrazole]: the IC50 in test [1] is 11 nM; in test [2], at least 5000 nM.
Taken in the same sequence, the figures for `C[C@H](Oc1ccc(Oc2ccc(-c3ccn[nH]3)cc2)cc1)c1ccccn1` [Example 58, 2-[(1S)-1-{4-[4-(1H-pyrazol-5-yl)phenoxy]phenoxy}ethyl]pyridine] were 44 nM and at least 5000 nM.

(Values after patent US9139567B2, “Arylpyrazole ethers as inhibitors of leukotriene A4 hydrolase” (Boehringer Ingelheim International GmbH, priority 2011, dated 2015).)
